Data from patent US10833345B2, “Materials for high-performance aqueous organic redox flow batteries” (UNIVERSITY OF SOUTHERN CALIFORNIA, priority 2016, dated 2020).
Blank lines part the entries; values can stand above or below the molecule they belong to.

Experiments:
[1] = Rotating disk electrode study of hydroxyl-substituted anthraquinones in NaOH; format: physicochemical; conditions: Hydroxy anthraquinones in NaOH
Description: Bifunctional redox molecules can also be a molecule with different redox properties in various ranges of potentials. This type of molecule is typified by the substituted hydroxy anthraquinones. In this regard, redox properties of several substituted anthraquinones have been studies. Electrochemistry experiments on the rotating disk electrode confirm the existence of two diffusion limited regions separated by a significant potential difference of 0.5 V to 1.0 V for certain types of substitutions (FIG. 6). For these molecules, two different redox processes occur at different potentials. Those molecules which have hydroxyl substituents in positions such as 1,2- and 1, 4- are particularly suitable for this purpose.
In Table 2 below we summarize the properties of these types of substituted anthraquinones that can be used on both as positive and negative electrode materials and others that have similar moieties but are not suitable for this type of deployment. The use of these molecules is suitable for use both acidic and alkaline media as shown by the rotating electrode studies.

[2] = Cyclic voltammetry of redox couples in alkaline electrolyte; format: physicochemical; conditions: for reduction potential: vs. mercury/mercuric oxide reference electrode (MMO)
Description: The redox couples must be soluble in the alkaline electrolyte and must can undergo facile electron transfer.
The reduction potential for this couple in alkaline electrolyte is about −0.35 V vs. MMO.
While these compounds are not suitable for operation in acidic media because of the attendant polymerization reactions, these compounds perform well in alkaline media. […] The reduction potentials are quite negative relative to the last example of DHA. Consequently, this may be combined with AQDS to form a redox flow battery.
The electrochemical reversibility of such a Michael addition-resistant compound is shown in FIG. 29 for benzenedi-hydroxy tetracarboxylic acid also called hydroquinonetetracarboxylic acid (HQTC). […] The reduction potential of HQTC is such that it can be combined with DHA to create a redox flow battery with a cell voltage of 0.5 V (FIG. 30). Further HQTC can also be combined with the molecules from the quinoxaline family, and the flavin family to yield redox flow batteries with the cell voltage in the range of 0.5 to 1 V. 1,2,4-trihydroxyanthraquinone (Purpurin) is claimed to be a negative electrode material suitable for operation in alkaline media.

[3] = Crossover rate through NAFION 324 versus NAFION 117 membrane; format: physicochemical; conditions: NAFION 324 (25-micron EW 1500 layer, 150-micron EW 1100 layer) vs NAFION 117 (EW 1100)
Description: In a variation, the reduced rate of crossover of the redox active molecules is achieved by using a membrane with a higher equivalent weight of NAFION®. The membrane NAFION® 324, has a 25-micron layer of equivalent weight 1500 and a 150-micron layer of equivalent weight 1100. The crossover rate of DMDHMS through such a membrane is just 0.65 of that through a homogenous NAFION® 117 membrane that has an equivalent weight of 1100 throughout the membrane.

[4] = Rate of crossover through NAFION 117 membrane; format: physicochemical; conditions: for crossover rate rank order: over 192 hours; for concentration appearing by crossover through the membrane: 192 hours
Description: In another embodiment, compounds for the first redox couple 22 and/or the second redox couple 32 of FIG. 1 that reduce crossover between the anode and cathode compartments are provided. The crossover of the redox active species across the cell is largely determined by the molecular size. Examples of the redox compounds of this embodiment include, but are not limited to, para-toluene sulfonic acid (p-TSA), 2,6-dimethyl-1,4-dihydroxy benzene 3-mono-sulfonic acid, 1,2-dihydroxybenzene-3,5-disulfonic acid (BQDS), and anthraquinone-2,7-disulfonic acid (AQDS). The rate of crossover of the various types of positive electrode materials through a NAFION® 117 membrane was measured. The concentration of p-TSA appearing by crossover through the membrane is found to be much higher than that of the DMDHMS and BQDS (FIG. 6). […] The crossover rate measured over a period of 192 hours provided a rank order of p-TSA>DMDHMS≈BQDS>>AQDS. This rank order correlates with molecular size. The molecules of smaller size will diffuse more readily through the proton conducting membrane. Therefore, it is claimed that by modifying the size of the molecule we can suppress or reduce crossover. The redox active molecules that are prone to crossover may be modified in the size by either applying substituent groups. Such substituent groups can be simple methyl groups, sulfonic acid groups, alkyl groups, branched alkyls such as tertiary butyl, aromatic groups such as phenyl or benzyl groups, multi-ring aromatic groups such as naphthyl, anthracenyl (with or without substituents) amino, quaternary amino, keto, carboxyl and quinone groups. Examples of such redox active molecules with substituents that are enhanced in molecular size include the following compounds having formula II, III, and IV: […]

[5] = Charge and discharge cycling of organic redox flow cells; conditions: cell with anthraquinone-2,7-disulfonic acid, 0.5 M each
Description: In another embodiment, the effects of crossover can be mitigated by using a mixture of positive and negative electrolyte materials in equimolar quantities at both the electrodes. When such a mixture is charged only the positive electrolyte component will undergo oxidation reaction at the positive electrode and the negative electrolyte material will undergo reduction reactions at the negative electrode. Since the concentration of the redox active species is identical even if crossover occurs, the positive electrolyte material occurred to the negative electrolyte side this change in concentration will be balanced by back diffusion. Thus, there might be self-discharge but no permanent capacity loss or compositional change of the electrolyte. Any two redox couples that qualify as positive and negative electrolyte materials can be mixed in equimolar proportions and used as the electrolyte. We have shown the feasibility of rechargeability of this type of mixed materials using DMDHMS and AQDS (FIG. 8). Nearly 100% of the charge input was returned during discharge.
Based on the electrode potentials, the DHA can serve as the negative electrolyte and the AQDS can serve as the positive electrolyte. […] The cell was charged and discharged at 8 mA/cm^2. The value of cell voltage was consistent with that expected from the reduction potential of the redox couples. […]

[6] = Cyclic voltammetry and redox cell states of AMBSA; format: physicochemical; conditions: FIG. 4
[7] = alkaline electrolyte, 1 M potassium hydroxide

electrochemical behavior (cyclic voltammogram) ([2]; 1 M sodium hydroxide): reversible electrochemical reaction | reduction potential ([2]; 1 M sodium hydroxide): about −0.7 V
Structure (SMILES): O=C1c2cccc(O)c2C(=O)c2c(O)cccc21 [DHA, 1,8-dihydroxyanthraquinone]

Di-Couple Potential (yes/no) [1]: Yes | Di-Couple Potential difference [1]: 880 mV | E1/2(Volts) vs MMO [1]: −0.63 V
Structure (SMILES): O=C1c2ccccc2C(=O)c2c(O)ccc(O)c21 [1,4-dihydroxy anthraquinone]

Di-Couple Potential (yes/no) [1]: Yes | Di-Couple Potential difference [1]: 840 mV | E1/2(Volts) vs MMO [1]: −0.84 V
Structure (SMILES): O=C1c2ccccc2C(=O)c2c(O)c(O)cc(O)c21 [1,2,4-trihydroxy anthraquinone]

Di-Couple Potential (yes/no) [1]: No | E1/2(Volts) vs MMO [1]: −0.65 V
Structure (SMILES): O=C1c2cccc(O)c2C(=O)c2cccc(O)c21 [1,5-dihydroxy anthraquinone]

Di-Couple Potential (yes/no) [1]: No | E1/2(Volts) vs MMO [1]: −0.8 V
Structure (SMILES): O=C1c2ccc(O)cc2C(=O)c2ccc(O)cc21 [2,6-dihydroxy anthraquinone]

cyclic voltammogram peaks [6]: two distinct peaks
Structure (SMILES): O=C1c2ccccc2C(=O)c2cc(Cc3cc(O)cc(S(=O)(=O)O)c3O)ccc21 [AMBSA, 2-anthraquinonemethyl (p-benzoquinol sulfonic acid)]

concentration appearing by crossover through the membrane [4]: not detected | crossover rate rank order [4]: p-TSA>DMDHMS≈BQDS>>AQDS | electrochemical behavior (cyclic voltammogram) ([2]; 1 M sodium hydroxide): reversible electrochemical behavior | reduction potential ([2]; 1 M sodium hydroxide): about −0.35 V
Structure (SMILES): O=C1c2ccc(S(=O)(=O)O)cc2C(=O)c2cc(S(=O)(=O)O)ccc21 [AQDS, anthraquinone-2,7-disulfonic acid]

Continued, molecule first:

Structure (SMILES): O=C1c2ccccc2C(=O)c2c1cc(S(=O)(=O)O)c(O)c2O [1,2-dihydroxy, 3-sulfonic acid anthraquinone]
Di-Couple Potential (yes/no) [1]: Yes | Di-Couple Potential difference [1]: 930 mV | E1/2(Volts) vs MMO [1]: −0.75 V

Structure (SMILES): O=C1c2ccccc2C(=O)c2c1ccc(O)c2O [difference1,2-dihydroxy anthraquinone, 1,2-dihydroxy anthraquinone]
Di-Couple Potential (yes/no) [1]: Yes | Di-Couple Potential difference [1]: 1 V | E1/2(Volts) vs MMO [1]: −0.73 V

Structure (SMILES): c1ccc2nccnc2c1 [quinoxaline]
electrochemical behavior (cyclic voltammogram) [2, 7]: reversible electrochemical behavior

Structure (SMILES): Cc1cc(O)c(S(=O)(=O)O)c(C)c1O [DMDHMS, 2,6-dimethyl-1,4-dihydroxybenzene-3-sulfonic acid]
crossover rate through NAFION 324 relative to NAFION 117 [3]: 0.65 | crossover rate rank order [4]: p-TSA>DMDHMS≈BQDS>>AQDS

Structure (SMILES): O=C(O)c1c(O)c(C(=O)O)c(C(=O)O)c(O)c1C(=O)O [HQTC, hydroquinonetetracarboxylic acid]
electrochemical behavior (cyclic voltammogram) [2, 7]: reversible electrochemical behavior with two different sets of peaks

Structure (SMILES): O=S(=O)(O)c1cc(O)c(O)c(S(=O)(=O)O)c1 [BQDS, 1,2-dihydroxybenzene-3,5-disulfonic acid]
crossover rate rank order [4]: p-TSA>DMDHMS≈BQDS>>AQDS

Structure (SMILES): Cc1ccc(S(=O)(=O)O)cc1 [p-TSA, para-toluene sulfonic acid, reference compound]
concentration appearing by crossover through the membrane [4]: much higher | crossover rate rank order [4]: p-TSA>DMDHMS≈BQDS>>AQDS

Structure (SMILES): Cc1cc(O)c(C)c(S(=O)(=O)O)c1O [2,5-dimethyl-1,4-dihydroxybenzene-3-sulfonic acid]
resistance to Michael reaction, cycles of charge and discharge [5]: at least 100 cycles
